Reference: patent US12286435B2, “Compound having benzo seven-membered ring structure, preparation method therefor, and use thereof” (BIONNA (BEIJING) MEDICAL TECHNOLOGY CO., LTD., priority 2019, dated 2025)
Where “and” joins values, the source holds several entries; their conditions need not be identical. Equal entries are not always repeated. Structures can show the parent of a compound that is named as a salt.

Columns and labels:
[1] = target: BRD4 BD1 protein (Homo sapiens (Human), UniProt O60885); test: Fluorescence polarization binding affinity (Ki) with BRD4 BD1 protein; conditions: fluorescence polarization; Ki calculated from IC50
[2] = target: BRD4 BD2 protein (Homo sapiens (Human), UniProt O60885); test: Fluorescence polarization binding affinity (Ki) with BRD4 BD2 protein; set-up: BRD4 BD2 Ki: reference not given here; conditions: fluorescence polarization; Ki calculated from IC50
[3] = tested on: multiple myeloma MM.1S cell line; test: Cell viability (CCK-8), multiple myeloma MM.1S; format: cell-based; conditions: MM.1S cells, 4 days, CCK-8, 50% inhibition of cell growth
Description: 3. Determination of cell viability of the compound
The sample to be tested was dissolved with 100% dimethyl sulfoxide to prepare a 20 mM stock solution of the compound, which was diluted with 100% dimethyl sulfoxide to the highest compound concentration required for the experiment (2.5 mM).
First, 145 uL of a complete cell culture medium was added to wells B1-G1 of a 96-well flat-bottomed tansparent cell culture plate, and 100 uL of the complete medium was added to wells B2-G12, respectively. Then, 5 uL of the 2.5 mM solution of the compound was added to wells B1-D1 and E1-G1 respectively, and then diluted gradiently by 3-folds to B12-D12 and E12-G12 in sequence. Finally, 50 uL of the solution of the cells to be tested was added to each well, with about 3000-5000 cells per well, and a total volume of 150 uL per well.
In the experiment, in addition to the tested compound, two other control groups were set up: 1) a control group adding the cells and the complete medium, but without adding the compound; 2) a control group adding the complete medium only, without adding the cells and the compound. The 96-well plate was placed in a 37° C. cell culture incubator containing 5% carbon dioxide for 4 days, added with 15 uL of a CCK-8 reagent per well, and then incubated at 37° C. for 2-4 hours. The 96-well plate was read on a TECAN microplate reader, and the absorbance value at 450 nm wavelength was taken.
The effect of different concentrations of the compound on cell viability was calculated by the following equation: [absorption value of the experimental group−absorption value of pure cell culture medium without the cells or the compound]/[absorption value of the control group with the tumor cells but no testing compound−absorption value of pure cell culture medium without the cell or the compound]×100%.
The above data were precessed by software, and the IC50 value was the concentration of the compound corresponding to the 50% inhibition rate of cell growth.
Based on the above test method of the compound on cell viability, a variety of […] cancer cell lines were tested, using multiple myeloma MM.1S, breast cancer MDA-MB-231 and leukemia MV4-11 cell lines as exemples. Using this test method, the IC50 values of partial compounds in the examples of the present invention measured in multiple myeloma MM.1S, breast cancer MDA-MB-231 cell lines and leukemia MV4-11 cell lines were shown in Table 2.

Ki [1]	Ki [2]	IC50 ([3]; Homo sapiens, MM1.S, 96 h)	IC50 [3]	BRD4 BD2 Ki [2]	SMILES
1720 nM	82.8 nM	2460 nM			Cc1nnn2c1-c1ccc(-c3cnn(C)c3)cc1C(Nc1ccc(C(=O)O)cc1)CC2 (stereo not shown) [LB20, 4-((1-methyl-9-(1-methyl-1H-pyrazol-4-yl)-6,7-dihydro-5H-benzo[c][1,2,3]triazolo[1,5-a]azepin-7-yl)amino)benzoic acid]
45.4 nM	7 nM	775 nM			Cc1cc(NC2CCn3nnc(C)c3-c3ccc(-c4cnn(C)c4)cc32)n(C)n1 (stereo not shown) [BE114, N-(1,3-dimethyl-1H-pyrazol-5-yl)-1-methyl-9-(1-methyl-1H-pyrazol-4-yl)-6,7-dihydro-5H-benzo[c][1,2, 3]triazolo[1,5-a]azepin-7-amine]
81.4 nM	11.6 nM	13.4 nM			Cc1nnn2c1-c1ccc(-c3cnn(C)c3)cc1C(Nc1cccc3cccnc13)CC2 (stereo not shown) [LB91, 1-methyl-9-(1-methyl-1H-pyrazol-4-yl)-N-(quinolin-8-yl)-6,7-dihydro-5H-benzo[c][1,2,3]triazolo[1,5-a]azepin-7-amine]
44 nM	21.4 nM	22.9 nM			Cc1nnn2c1-c1ccc(-c3cnn(C)c3)cc1C(Nc1ccccc1CCO)CC2 (stereo not shown) [LA198, 2-(2-((1-methyl-9-(1-methyl-1H-pyrazol-4-yl)-6,7-dihydro-5H-benzo[c][1,2,3]triazolo[1,5-a]azepin-7-yl)amino)phenyl)ethan-1-ol]
426 nM	50.5 nM	143 nM			Cc1nnn2c1-c1ccc(-c3cnn(C)c3)cc1C(Nc1ccc3cccnc3c1)CC2 (stereo not shown) [LB89, 1-methyl-9-(1-methyl-1H-pyrazol-4-yl)-N-(quinolin-7-yl)-6,7-dihydro-5H-benzo[c][1,2,3]triazolo[1,5-a] azepin-7-amine]
51.2 nM	19.8 nM	13.6 nM			Cc1nnn2c1-c1ccc(-c3cn[nH]c3)cc1C(Nc1ccc(Cl)cc1)CC2 (stereo not shown) [RB07, N-(4-chlorophenyl)-1-methyl-9-(1H-pyrazol-4-yl)-6,7-dihydro-5H-benzo[c][1,2,3]triazolo[1,5-a]azepin-7-amine]
577 nM	86.9 nM	3190 nM			Cc1nnn2c1-c1ccc(-c3cnn(C)c3)cc1C(Oc1ccc(F)cc1F)CC2 (stereo not shown) [BE95, 7-(2,4-difluorophenoxy)-1-methyl-9-(1-methyl-1H-pyrazol-4-yl)-6,7-dihydro-5H-benzo[c][1,2,3]triazolo[1,5-a]azepine]
33.6 nM	24.7 nM	676 nM			Cc1nnn2c1-c1ccc(-c3ccnc4[nH]ccc34)cc1C(Nc1ccc(Cl)cc1)CC2 (stereo not shown) [RB31, N-(4-chlorophenyl)-1-methyl-9-(1H-pyrrolo[2,3-b]pyridin-4-yl)-6,7-dihydro-5H-benzo[c][1,2,3]triazolo[1,5-a]azepin-7-amine]
26.1 nM	7.06 nM	22.8 nM	20.8 nM		Cc1nnn2c1-c1ccc(-c3cnn(C)c3)cc1C(Nc1cccc(O)c1)CC2 (stereo not shown) [LB171, 3-((1-methyl-9-(1-methyl-1H-pyrazol-4-yl)-6,7-dihydro-5H-benzo[c][1,2,3]triazolo[1,5-a]azepin-7-yl)amino)phenol]
92.6 nM	20.9 nM	27.9 nM			Cc1nnn2c1-c1ccc(-c3cnn(C)c3)cc1C(Nc1cccc(CN(C)C)c1)CC2 (stereo not shown) [LC31, N-(3-((dimethylamino)methyl)phenyl)-1-methyl-9-(1-methyl-1H-pyrazol-4-yl)-6,7-dihydro-5H-benzo[c][1,2,3]triazolo[1,5-a]azepin-7-amine]
97.6 nM	42.5 nM	412 nM			Cc1nnn2c1-c1ccc(-c3cnn(C)c3)cc1C(Nc1ccc(CC(=O)O)cc1)CC2 (stereo not shown) [LB36, 2-(4-((1-methyl-9-(1-methyl-1H-pyrazol-4-yl)-6,7-dihydro-5H-benzo[c][1,2,3]triazolo[1,5-a]azepin-7-yl)amino)phenyl)acetic acid]
139 nM	29.9 nM	171 nM			Cc1nnn2c1-c1ccc(-c3cnn(C)c3)cc1C(Nc1cc(C3CC3)nn1C)CC2 (stereo not shown) [BE130, N-(3-cyclopropyl-1-methyl-1H-pyrazol-5-yl)-1-methyl-9-(1-methyl-1H-pyrazol-4-yl)-6,7-dihydro-5H-benzo[c][1,2,3]triazolo[1,5-a]azepin-7-amine]
129 nM	15.4 nM	53.2 nM			Cc1nnn2c1-c1ccc(-c3cncnc3)cc1C(Nc1ccc(Cl)cc1)CC2 (stereo not shown) [RB06, N-(4-chlorophenyl)-1-methyl-9-(pyrimidin-5-yl)-6,7-dihydro-5H-benzo[c][1,2,3]triazolo[1,5-a]azepin-7-amine]
204 nM	138 nM	25.2 nM			COc1ccc2c(c1)C(Nc1ccc(C(F)(F)F)cc1)CCc1onc(C)c1-2 (stereo not shown) [FA05, 8-methoxy-1-methyl-N-(4-(trifluoromethyl)phenyl)-5,6-dihydro-4H-benzo[6,7]cyclohepta[1,2-d]isoxazol-6-amine]
64.5 nM	22.4 nM	51.7 nM			Cc1nnn2c1-c1ccc(-c3cnn(C)c3)cc1C(Nc1ccc(CCO)cc1)CC2 (stereo not shown) [LB24, 2-(4-((1-methyl-9-(1-methyl-1H-pyrazol-4-yl)-6,7-dihydro-5H-benzo[c][1,2,3]triazolo[1,5-a]azepin-7-yl)amino)phenyl)ethan-1-ol]
15.5 nM		39.3 nM		<Kd	Cc1nnn2c1-c1ccc(-c3cnn(C)c3)cc1C(Nc1ccccc1CC#N)CC2 (stereo not shown) [LC09, 2-(2-((1-methyl-9-(1-methyl-1H-pyrazol-4-yl)-6,7-dihydro-5H-benzo[c][1,2,3]triazolo[1,5-a]azepin-7-yl)amino)phenyl)acetonitrile]

SMILES	Ki [1]	Ki [2]	IC50 ([3]; Homo sapiens, MM1.S, 96 h)	IC50 [3]	BRD4 BD2 Ki [2]
Cc1nnn2c1-c1ccc(-c3cnn(C)c3)cc1C(Nc1ccccc1CN(C)C)CC2 (stereo not shown) [LC29, N-(2-((dimethylamino)methyl)phenyl)-1-methyl-9-(1-methyl-1H-pyrazol-4-yl)-6,7-dihydro-5H-benzo[c][1,2,3]triazolo[1,5-a]azepin-7-amine]	19.4 nM	7.6 nM	12.2 nM		
Cc1nnn2c1-c1ccc(-c3cnn(C)c3)cc1C(Nc1cccc(CC#N)c1)CC2 (stereo not shown) [LC20, 2-(3-((1-methyl-9-(1-methyl-1H-pyrazol-4-yl)-6,7-dihydro-5H-benzo[c][1,2,3]triazolo[1,5-a]azepin-7-yl)amino)phenyl)acetonitrile]	59.6 nM	15 nM	25.3 nM		
COc1cccc(NC2CCn3nnc(C)c3-c3ccc(C4=CCN(C(C)C)CC4)cc32)c1 (stereo not shown) [BH37, 9-(1-isopropyl-1,2,3,6-tetrahydropyridin-4-yl)-N-(3-methoxyphenyl)-1-methyl-6,7-dihydro-5H-benzo[c][1,2,3]triazolo[1,5-a]azepin-7-amine 2,2,2-trifluoroacetate]	1880 nM and 1560 nM	61.9 nM and 28.3 nM	352 nM		
CCN1CC=C(c2ccc3c(c2)C(Nc2cccc(OC)c2)CCn2nnc(C)c2-3)CC1 (stereo not shown) [BH33, 9-(1-ethyl-1,2,3,6-tetrahydropyridin-4-yl)-N-(3-methoxyphenyl)-1-methyl-6,7-dihydro-5H-benzo[c][1,2,3]triazolo[1,5-a]azepin-7-amine 2,2,2-trifluoroacetate]	1780 nM and 693 nM	38.6 nM and 27.9 nM	187 nM		
Cc1nnn2c1-c1ccc(C3=CCNCC3)cc1C(Nc1ccc(Cl)cc1)CC2 (stereo not shown) [RB99, N-(4-chlorophenyl)-1-methyl-9-(1,2,3,6-tetrahydropyridin-4-yl)-6,7-dihydro-5H-benzo[c][1,2,3]triazolo[1,5-a]azepin-7-amine hydrochloride]	422 nM	19.4 nM	215 nM		
